Test results from BigSolDB 2.1.

CCCc1nc(C(C)(C)O)c(C(=O)OCC)n1Cc1ccc(-c2ccccc2-c2nnnn2C(c2ccccc2)(c2ccccc2)c2ccccc2)cc1
solubility (mole fraction)
Conditions	278.15 K	283.15 K	288.15 K	293.15 K	298.15 K	303.15 K	308.15 K	313.15 K	318.15 K
in DMAc	0.00501	0.00574	0.00655	0.00756	0.00872	0.01	0.0114	0.0129	0.0148
in DMF	0.00117	0.00148	0.00186	0.00229	0.0028	0.00337	0.004	0.00471	0.00553
in acetone	0.000617	0.000854	0.00115	0.00154	0.00197	0.00242	0.0029	0.0035	0.00417
in acetonitrile	0.00027	0.000315	0.000373	0.00044	0.000513	0.000597	0.000689	0.00079	0.000901
in cyclohexanone	0.00729	0.00844	0.00967	0.0112	0.0128	0.0147	0.0166	0.0187	0.0211
in ethanol	8.35e-05	0.000102	0.000124	0.000147	0.000174	0.000206	0.000239	0.000277	0.000318
in ethyl acetate	0.00177	0.0021	0.00256	0.00308	0.00372	0.00445	0.00523	0.00607	0.00699
in isobutanol	0.00012	0.000145	0.000177	0.000216	0.000255	0.000302	0.000352	0.000408	0.000472
in isopropanol	5.42e-05	6.87e-05	8.5e-05	0.000102	0.000122	0.000144	0.00017	0.000197	0.000228
in methanol	4.18e-05	5.35e-05	6.64e-05	8.11e-05	9.59e-05	0.000112	0.000131	0.000152	0.000175
in n-butanol	0.000177	0.000211	0.000253	0.000298	0.000348	0.000401	0.000458	0.000521	0.000588
in n-propanol	0.000144	0.000175	0.000213	0.000253	0.000298	0.000346	0.000397	0.000454	0.000519
in toluene	0.00257	0.0032	0.00403	0.00503	0.00608	0.00738	0.00882	0.0104	0.0124
